Where two headings read alike, the source gives them in different places. One block for each compound: values may come before it.
Molecular target: T1, human IBAT (Homo sapiens, UniProt Q12908)
T1 construct: expressed in transfected cells; host or cells: Baby hamster kidney (BHK) cells, clone H14
T1 sequence (Q12908 1-348): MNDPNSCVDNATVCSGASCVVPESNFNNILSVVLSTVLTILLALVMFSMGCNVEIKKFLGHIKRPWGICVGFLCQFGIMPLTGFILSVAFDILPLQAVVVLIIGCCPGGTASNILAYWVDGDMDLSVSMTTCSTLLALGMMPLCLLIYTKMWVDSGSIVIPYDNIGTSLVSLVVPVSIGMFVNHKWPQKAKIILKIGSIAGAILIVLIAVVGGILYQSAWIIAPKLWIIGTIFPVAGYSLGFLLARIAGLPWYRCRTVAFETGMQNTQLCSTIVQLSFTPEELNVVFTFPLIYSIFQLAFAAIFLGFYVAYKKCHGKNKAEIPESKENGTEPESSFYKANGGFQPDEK
Assay: In vitro assay of IBAT-mediated uptake of [14C]-taurocholate (TC) in H14 cells
Assay type: cell-based
Procedure, shortened: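 BHK cells stably expressing human IBAT (H14) were incubated 2 h at 37° C with compound and 3 μM final [14C]-taurocholate in DMEM (4.5 g/L glucose) plus 0.2% fatty acid-free BSA. After cold PBS washes, cell-associated radioactivity was measured by scintillation counting.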

Compound: CCCCC1(CC)CS(=O)(=O)c2ccc(N(C)C)cc2C(c2cccc(O)c2)C1O (stereo not drawn) [Example 1260]
- IC50 (read-out: Human TC IC50): 12 nM

Compound: CCCCC1(CCCC)CS(=O)(=O)c2ccc(N(C)C)cc2C(c2ccc(OCCCCCCCCCC[N+](CC)(CC)CC)cc2)C1O (stereo not drawn) [Example 1268]
- IC50 (read-out: Human TC IC50): 35 nM

Compound: CCCCC1(CCCC)CS(=O)(=O)c2ccc(N(C)C)cc2C(c2cccc(OCCOCCOCC[N+](C)(C)CCN(CC)S(=O)(=O)c3ccccc3)c2)C1O (stereo not drawn) [Example 1271]
- IC50 (read-out: Human TC IC50): 11 nM

Compound: CCCCC1(CCCC)CS(=O)(=O)c2ccc(N(C)C)cc2C(c2cccc(OCCOCCOCC[n+]3cccc(CC(=O)O)c3)c2)C1O (stereo not drawn) [Example 1272]
- IC50 (read-out: Human TC IC50): 47 nM

Compound: CCCCCCCCC[N+](CCCCCCCCC)(CCCCCCCCC)CCOCCOCCOc1cccc(C2c3cc(N(C)C)ccc3S(=O)(=O)CC(CCCC)(CCCC)C2O)c1 (stereo not drawn) [Example 1273]
- IC50 (read-out: Human TC IC50): 29 nM

Compound: CCCCC1(CCCC)CS(=O)(=O)c2ccc(N(C)C)cc2C(c2ccc(OCCOCC[N+]3(C)CC[N+](C)(C)CC3)c(F)c2)C1O (stereo not drawn) [Example 1275]
- IC50 (read-out: Human TC IC50): 24 nM

Compound: CCCCC1(CCCC)CS(=O)(=O)c2ccc(N(C)C)cc2C(c2cccc(OCCOCCOCC[N+](CCCCCCC(C)C)(CCCCCCC(C)C)CCCCCCC(C)C)c2)C1O (stereo not drawn) [Example 1276]
- IC50 (read-out: Human TC IC50): 29 nM

Compound: CCCCC1(CCCC)CS(=O)(=O)c2ccc(N(C)C)cc2C(c2ccc(OCCOCCN(C)CC(=O)O)c(F)c2)C1O (stereo not drawn) [Example 1277]
- IC50 (read-out: Human TC IC50): 18 nM

Compound: CCCCC[N+](CCCCC)(CCCCC)CCOCCOCCOc1cccc(C2c3cc(N(C)C)ccc3S(=O)(=O)CC(CCCC)(CCCC)C2O)c1 (stereo not drawn) [Example 1278]
- IC50 (read-out: Human TC IC50): 17 nM

Compound: CCCCCC[N+](CCCCCC)(CCCCCC)CCOCCOCCOc1cccc(C2c3cc(N(C)C)ccc3S(=O)(=O)CC(CCCC)(CCCC)C2O)c1 (stereo not drawn) [Example 1279]
- IC50 (read-out: Human TC IC50): 28 nM

Compound: CCCCC1(CCCC)CS(=O)(=O)c2ccc(N(C)C)cc2C(c2ccc(CC(=O)N(C)CN(C)C)c(F)c2)C1O (stereo not drawn) [Example 1280]
- IC50 (Human TC IC50): 760 nM

Compound: CCCCC1(CC)CS(=O)(=O)c2ccc([N+](C)(C)C)cc2C(c2ccc(OC)c(F)c2)C1O (stereo not drawn) [Example 1282]
- IC50 (read-out: Human TC IC50): 170 nM

Compound: CCCCC1(CC)CS(=O)(=O)c2ccc(N(C)C)cc2C(c2ccccc2)C1O (stereo not drawn) [Example 1285]
- IC50 (Human TC IC50): 27 nM

Compound: CCCCC1(CCCC)CS(=O)(=O)c2ccc(N(C)C)cc2C(c2ccc(OCCC[N+](CCCC)(CCCC)CCCC)c(F)c2)C1O (stereo not drawn) [Example 1286]
- IC50 (read-out: Human TC IC50): 68 nM

Compound: CCCCC1(CCCC)CS(=O)(=O)c2ccc(N(C)C)cc2C(c2cccc(OCCOCCOCC[N+]3(CCOc4ccc(Br)cc4)CCCC3)c2)C1O (stereo not drawn) [Example 1288]
- IC50 (read-out: Human TC IC50): 13 nM

Compound: CCCCCCCC[N+](CCCCCCCC)(CCCCCCCC)CCOCCOCCOc1cccc(C2c3cc(N(C)C)ccc3S(=O)(=O)CC(CCCC)(CCCC)C2O)c1 (stereo not drawn) [Example 1289]
- IC50 (read-out: Human TC IC50): 26 nM

Compound: CCCCC1(CCCC)CS(=O)(=O)c2ccc(N(C)C)cc2C(c2ccc(OCCC[n+]3ccccc3CCCO)c(F)c2)C1O (stereo not drawn) [Example 1290]
- IC50 (read-out: Human TC IC50): 17 nM

Compound: CCCCC1(CCCC)CS(=O)(=O)c2ccc(N(C)C)cc2C(c2cccc(OCCOCCOCC[P+](c3ccccc3)(c3ccccc3)c3ccccc3)c2)C1O (stereo not drawn) [Example 1292]
- IC50 (read-out: Human TC IC50): 25 nM

Compound: CCCCC1(CCCC)CS(=O)(=O)c2ccc(N(C)C)cc2C(c2cccc(OCCOCCOCC[N+](CC)(CC)CCC(C)=O)c2)C1O (stereo not drawn) [Example 1293]
- IC50 (read-out: Human TC IC50): 19 nM

Compound: CCCCC1(CCCC)CS(=O)(=O)c2ccc(N(C)C)cc2C(c2cccc(OCCOCCOCC[N+]3(c4ccccc4)CCCCC3)c2)C1O (stereo not drawn) [Example 1294]
- IC50 (read-out: Human TC IC50): 11 nM

Compound: CCCCC1(CCCC)CS(=O)(=O)c2ccc(N(C)C)cc2C(c2ccc(OCc3cc[n+](CC(=O)OC(C)(C)C)cc3)c(F)c2)C1O (stereo not drawn) [Example 1295]
- IC50 (read-out: Human TC IC50): 14 nM

Compound: CCCCC1(CCCC)CS(=O)(=O)c2ccc(N(C)C)cc2C(c2ccc(OCCOCCOc3cccc(N(CC)CC)c3)c(F)c2)C1O (stereo not drawn) [Example 1296]
- IC50 (read-out: Human TC IC50): 63 nM

Compound: CCCCC1(CCCC)CS(=O)(=O)c2ccc(N(C)C)cc2C(c2cccc(OCCOCCOCC[n+]3ccc(C4CCC(C)CC4)cc3)c2)C1O (stereo not drawn) [Example 1297]
- IC50 (read-out: Human TC IC50): 29 nM

Compound: CCCCC1(CCCC)CS(=O)(=O)c2ccc(N(C)C)cc2C(c2cccc(OCCOCCOCC[N+](C)(C)CCC(C)CCN(C)C)c2)C1O (stereo not drawn) [Example 1298]
- IC50 (read-out: Human TC IC50): 18 nM

Compound: CCCCC1(CCCC)CS(=O)(=O)c2ccc(N(C)C)cc2C(c2ccc(OC(=O)C(OC)(c3ccccc3)C(F)(F)F)cc2)C1O (stereo not drawn) [Example 1306]
- IC50 (read-out: Human TC IC50): 1200 nM

Compound: CCCCC1(CC)CS(=O)(=O)c2ccc(N(C)C)cc2C(c2ccc(OS(=O)(=O)CC34CCC(CC3=O)C4(C)C)c(F)c2)C1O (stereo not drawn) [Example 1308]
- IC50 (read-out: Human TC IC50): 40 nM

Compound: CCCCC1(CC)CS(=O)(=O)c2ccc(N)cc2C(c2ccccc2)C1O (stereo not drawn) [Example 1310]
- IC50 (read-out: Human TC IC50): 1160 nM

Compound: CCCCC1(CCCC)CS(=O)(=O)c2ccc(N(C)C)cc2C(c2ccc(OCCC[N+](CCCC)(CCCC)CCCC)cc2)C1O (stereo not drawn) [Example 1352]
- IC50 (read-out: Human TC IC50): 100 nM

Compound: CCCCC1(CCCC)CS(=O)(=O)c2ccc(N(C)C)cc2C(c2ccc(OCCOCCOCC[N+]3(C)CC[N+](C)(C)CC3)c(F)c2)C1O (stereo not drawn) [Example 1354]
- IC50 (read-out: Human TC IC50): 6 nM

The remaining lines, values ahead:

- IC50 (read-out: Human TC IC50): 29000 nM
Compound: CCCCC1(CCCC)CS(=O)(=O)c2ccc(N(C)C)cc2C(c2ccc(OCCC[N+](CC)(CC)CC)cc2)C1O (stereo not drawn) [Example 1252]

- IC50 (read-out: Human TC IC50): 300 nM
Compound: CCCCC1(CCCC)CS(=O)(=O)c2ccc(N(C)C)cc2C(c2ccc(OC)c(C[N+](C)(C)C)c2)C1O (stereo not drawn) [Example 1253]

- IC50 (read-out: Human TC IC50): 850 nM
Compound: CCCCC1(CCCC)CS(=O)(=O)c2ccc(N(C)C)cc2C(c2ccc(C[n+]3ccccc3)cc2)C1O (stereo not drawn) [Example 1254]

- IC50 (read-out: Human TC IC50): 690 nM
Compound: CCCCC1(CCCC)CS(=O)(=O)c2ccc(N(C)C)cc2C(c2cccc(C[N+](C)(C)CC[N+](C)(C)C)c2)C1O (stereo not drawn) [Example 1255]

- IC50 (read-out: Human TC IC50): 11 nM
Compound: CCCCC1(CCCC)CS(=O)(=O)c2ccc(N(C)C)cc2C(c2cccc([N+](=O)[O-])c2)C1O (stereo not drawn) [Example 1256]

- IC50 (read-out: Human TC IC50): 100 nM
Compound: CCCCC1(CCCC)CS(=O)(=O)c2cc(Br)c(N(C)C)cc2C(c2ccccc2)C1O (stereo not drawn) [Example 1257]

- IC50 (read-out: Human TC IC50): 120 nM
Compound: CCCCC1(CCCC)CS(=O)(=O)c2c(NC(C)(C)C)cccc2C(c2ccc(F)cc2)C1O (stereo not drawn) [Example 1258]

- IC50 (read-out: Human TC IC50): 30 nM
Compound: CCCCC1(CCCC)CS(=O)(=O)c2ccc(N(C)C)cc2C(c2cccs2)C1O (stereo not drawn) [Example 1262]

- IC50 (read-out: Human TC IC50): 210 nM
Compound: CCCCC1(CCCC)CS(=O)(=O)c2ccc(NC(C)C)cc2C(c2ccc(F)cc2)C1O (stereo not drawn) [Example 1264]

- IC50 (read-out: Human TC IC50): 240 nM
Compound: CCCCC1(CCCC)CS(=O)(=O)c2c(NC(C)C)cccc2C(c2ccc(F)cc2)C1O (stereo not drawn) [Example 1265]

- IC50 (read-out: Human TC IC50): 26 nM
Compound: CCCCC1(CCCC)CS(=O)(=O)c2ccc(N(C)C)cc2C(c2ccc(OCCCCCCCCCCI)cc2)C1O (stereo not drawn) [Example 1269]

- IC50 (read-out: Human TC IC50): 26 nM
Compound: CCCCC1(CCCC)CS(=O)(=O)c2ccc(N(C)C)cc2C(c2ccc(OCCCCBr)c(F)c2)C1O (stereo not drawn) [Example 1270]

- IC50 (read-out: Human TC IC50): 28 nM
Compound: CCCCC1(CCCC)CS(=O)(=O)c2ccc(N(C)C)cc2C(c2ccc(OCc3cccc(CCl)n3)c(F)c2)C1O (stereo not drawn) [Example 1274]

- IC50 (read-out: Human TC IC50): 55 nM
Compound: CCCCC1(CCCC)CS(=O)(=O)c2ccc(N(C)C)cc2C(c2ccc(OCCCCCCI)cc2)C1O (stereo not drawn) [Example 1281]

- IC50 (read-out: Human TC IC50): 170 nM
Compound: CCCCC1(CCCC)CS(=O)(=O)c2ccc(N(C)C)cc2C(c2ccc(CO)cc2)C1O (stereo not drawn) [Example 1283]

- IC50 (read-out: Human TC IC50): 11 nM
Compound: CCCCC1(CCCC)CS(=O)(=O)c2c(NCC)cccc2C(c2ccc(F)cc2)C1O (stereo not drawn) [Example 1284]

- IC50 (read-out: Human TC IC50): 13 nM
Compound: CCCCC1(CCCC)CS(=O)(=O)c2ccc(N(C)C)cc2C(c2ccc(OCc3cccc[n+]3C)c(F)c2)C1O (stereo not drawn) [Example 1291]

- IC50 (read-out: Human TC IC50): 150 nM
Compound: CCCCC1(CCCC)CS(=O)(=O)c2ccc([N+](C)(C)C)cc2C(c2cccc(OC)c2)C1O (stereo not drawn) [Example 1301]

- IC50 (read-out: Human TC IC50): 1400 nM
Compound: CCCCC1(CCCC)CS(=O)(=O)c2c(O)cccc2C(c2cccc(O)c2)C1O (stereo not drawn) [Example 1302]

- IC50 (read-out: Human TC IC50): 260 nM
Compound: CCCCC1(CCCC)CS(=O)(=O)c2ccc(N(C)C)cc2C(c2ccc(OCC[N+](C)(C)C)cc2)C1O (stereo not drawn) [Example 1303]

- IC50 (read-out: Human TC IC50): 250 nM
Compound: CCCCC1(CCCC)CS(=O)(=O)c2ccc(NC(C)(C)C)cc2C(c2cccc(OC)c2)C1O (stereo not drawn) [Example 1304]

- IC50 (read-out: Human TC IC50): 250 nM
Compound: CCCCC1(CCCC)CS(=O)(=O)c2c(NC)cccc2C(c2ccc(F)cc2)C1O (stereo not drawn) [Example 1305]

- IC50 (read-out: Human TC IC50): 240 nM
Compound: CCCCC1(CCCC)CS(=O)(=O)c2c(F)cccc2C(c2ccc(OC)cc2)C1O (stereo not drawn) [Example 1309]

- IC50 (read-out: Human TC IC50): 5000 nM
Compound: CCCCCCOc1ccc2c(c1)S(=O)(=O)CC(CC)(CCCC)C(O)C2c1ccccc1 (stereo not drawn) [Example 1312]

- IC50 (read-out: Human TC IC50): 6100 nM
Compound: CCCCC1(CC)CS(=O)(=O)c2cc(OCC)ccc2C(c2ccccc2)C1O (stereo not drawn) [Example 1313]

- IC50 (read-out: Human TC IC50): 1670 nM
Compound: CCCCCCOc1ccc2c(c1)C(c1ccccc1)C(O)C(CC)(CCCC)CS2(=O)=O (stereo not drawn) [Example 1315]

- IC50 (read-out: Human TC IC50): 3900 nM
Compound: CCCCC1(CC)CS(=O)(=O)c2cc(O)ccc2C(c2ccccc2)C1O (stereo not drawn) [Example 1316]

- IC50 (read-out: Human TC IC50): 3.6 nM
Compound: CCCCC1(CCCC)CS(=O)(=O)c2ccc(N(C)C)cc2C(c2ccc(OC)c(F)c2)C1O (stereo not drawn) [Example 1347]

From patent US6784201B2, “Benzothiepines having activity as inhibitors of ileal bile acid transport and taurocholate uptake” (G.D. Searle & Company, priority 1994, dated 2004)
